Molecular target: T1, recombinant human NK3 receptor (Homo sapiens, UniProt P29371)
T1 construct: expressed in transfected cells; host or cells: HEK293 cells (transient expression), membranes
T1 sequence (P29371 1-465): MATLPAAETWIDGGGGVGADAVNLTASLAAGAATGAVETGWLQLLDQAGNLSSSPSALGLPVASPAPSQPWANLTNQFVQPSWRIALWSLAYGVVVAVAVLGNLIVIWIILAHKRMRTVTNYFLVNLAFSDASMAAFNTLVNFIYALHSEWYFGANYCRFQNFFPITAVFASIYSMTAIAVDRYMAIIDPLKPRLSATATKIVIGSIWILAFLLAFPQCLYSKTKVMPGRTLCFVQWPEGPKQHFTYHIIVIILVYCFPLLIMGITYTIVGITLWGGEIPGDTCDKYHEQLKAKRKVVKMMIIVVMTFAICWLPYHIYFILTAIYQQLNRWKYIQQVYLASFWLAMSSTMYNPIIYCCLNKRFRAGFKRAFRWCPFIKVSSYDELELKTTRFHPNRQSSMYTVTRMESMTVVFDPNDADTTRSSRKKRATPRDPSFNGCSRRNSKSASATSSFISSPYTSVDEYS
Test: [3H]SR142801 competition binding assay
Details: membranes from HEK293 cells transiently expressing recombinant human NK3 receptor; [3H]SR142801 radioligand; 75 min at RT; Ki by Cheng-Prussoff; read-out: Data Ki (hNK-3 receptor affinity)
In short: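 Membranes from HEK293 cells transiently expressing the receptor, 5 μg protein/well, in 50 mM Tris-HCl pH 7.4 with 4 mM MnCl2, 1 μM phosphoramidon, 0.1% BSA; nonspecific binding defined with 10 μM SB222200. Filtration and scintillation counting; IC50 from Hill fit, Ki by Cheng-Prussoff using saturation-derived KD, duplicates.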

CC[C@H](NC(=O)C1(c2ccccc2)CCN(C(=O)N2CCN(c3ccc(F)cc3)CC2)CC1)c1ccccc1 [Example 231, 1-[4-(4-Fluoro-phenyl)-piperazine-1-carbonyl]-4-phenyl-piperidine-4-carboxylic acid ((S)-1-phenyl-propyl)-amide]
Ki: 3.4 nM

C[C@H](NC(=O)C1(c2ccccc2)CCN(C(=O)c2ccc(N3CCS(=O)(=O)CC3)cc2)CC1)c1ccc(Cl)cc1 [Example 101, 1-[4-(1,1-Dioxo-1λ6-thiomor-pholin-4-yl)-benzoyl]-4-phenyl-pipendine-4-carboxylic acid [(S)-1-(4-chloro-phenyl)-ethyl]-amide]
Ki: 17.4 nM

C[C@H](NC(=O)C1(c2ccccc2)CCN(C(=O)N2CCN(c3ccccc3)CC2)CC1)c1ccccc1 [Example 232, 4-Phenyl-1-(4-phenyl-piperazine-1-carbonyl)-piperidine-4-carboxylic acid ((S)-1-phenyl-ethyl)-amide]
Ki: 36.3 nM

C[C@H](NC(=O)C1(c2ccccc2)CCN(C(=O)c2ccc(-c3ccn(C)n3)cc2)CC1)c1ccccc1 [Example 69, l-[4-(1-Methyl-1 H-pyrazol-3-yl)-benzoyl]-4-phenyl-piperidine-4-carboxylic acid ((S)-1-phenyl-ethyl)-amide]
Ki: 77.3 nM

C[C@H](NC(=O)C1(c2ccccc2)CCN(C(=O)c2ccc(-c3ccccn3)cc2)CC1)c1ccccc1 [Example 6, 4-Phenyl-1-(4-pyridin-2-yl-benzoyl)-piperidine-4-carboxylic acid ((S)-1-phenyl-ethyl)-amide]
Ki: 40.9 nM

C[C@H](NC(=O)C1(c2ccccc2)CCN(C(=O)c2ccc(-c3nnco3)cc2)CC1)c1ccccc1 [Example 35, 1-(4-[l,3,4]Oxadiazol-2-yl-benzoyl)-4-phenyl-piperidine-4-carboxylic acid ((S)-1-phenyl-ethyl)-amide]
Ki: 68.7 nM

C[C@H](NC(=O)C1(c2ccccc2)CCN(C(=O)N2CCC(N3CCSCC3)CC2)CC1)c1ccc(F)cc1 [Example 222, 4-Phenyl-1-(4-thiomorpholin-4-yl-piperidine-1-carbonyl)-piperidine-4-carboxylic acid [(S)-1-(4-fluoro-phenyl)-ethyl]-amide]
Ki: 10 nM

O=C(c1ccc(-c2ccc(F)cc2)cc1)N1CCC(C(=O)NC(c2ccccc2)C2CC2)(c2ccc(F)cc2)CC1 (stereo not drawn) [Example 147, 1-(4′-Fluoro-biphenyl-4-carbonyl)-4-(4-fluoro-phenyl)-piperidine-4-carboxylic acid (cyclopropyl-phenyl-methyl)-amide]
Ki: 17.6 nM

CC(=O)c1ccc(-c2ccc(C(=O)N3CCC(C(=O)N[C@@H](C)c4ccccc4)(c4ccccc4)CC3)cc2)cc1 [Example 59, 1-(4′-Acetyl-biphenyl-4-carbonyl)-4-phenyl-piperidine-4-carboxylic acid ((S)-1-phenyl-ethyl)-amide]
Ki: 37 nM

Cc1noc(-c2ccc(C(=O)N3CCC(C(=O)N[C@@H](C)c4ccccc4)(c4ccccc4)CC3)cc2)n1 [Example 43, 1-[4-(3-Methyl-[1,2,4]oxa-diazol-5-yl)-benzoyl]-4-phenyl-piperidine 4-carboxylic acid ((S)-1-phenyl-ethyl)-amide]
Ki: 3.2 nM

C[C@H](NC(=O)C1(c2ccccc2)CCN(C(=O)c2ccc(-n3cccc3)cc2)CC1)c1ccccc1 [Example 18, 4-Phenyl-1-(4-pyrrol-l-yl-benzoyl)-piperidine-4-carboxylic acid ((S)-1-phenyl-ethyl)-amide]
Ki: 96.6 nM

Cc1noc(-c2ccc(C(=O)N3CCC(C(=O)NC(c4ccc(F)cc4)C(F)(F)F)(c4ccc(F)cc4)CC3)cc2)n1 (stereo not drawn) [Example 200, 4-(4-Fluoro-phenyl)-1-[4-(3-methyl-[1,2,4]oxadiazol-5-yl)-benzoyl]-piperidine-4-carboxylic acid [2,2,2-trifluoro-1-(4-fluoro-phenyl)-ethyl]-amide]
Ki: 15 nM

CC(C)C(NC(=O)C1(c2ccc(F)cc2)CCN(C(=O)N2CCN(c3ccc(F)cc3)CC2)CC1)c1ccc(F)cc1 (stereo not drawn) [Example 175, 4-(4-Fluoro-phenyl)-1-[4-(4-fluoro-phenyl)-piperazine-1-carbonyl]-piperidine-4-carboxylic acid [1-(4-fluoro-phenyl)-2-methyl-propyl]-amide]
Ki: 48 nM

C[C@H](NC(=O)C1(c2ccccc2)CCN(C(=O)N2CCC(N3CCS(=O)(=O)CC3)CC2)CC1)c1ccc(F)cc1 [Example 223, 1-[4-(1,1-Dioxo-1λ6-thiomorpholin-4-yl)-piperidine-1-carbonyl]-4-phenyl-piperidine-4-carboxylic acid [(S)-1-(4-fluoro-phenyl)-ethyl]-amide]
Ki: 6 nM

C[C@H](NC(=O)C1(c2ccccc2)CCN(C(=O)N2CCN(c3ccc(Cl)cc3)CC2)CC1)c1ccccc1 [Example 219, 1-[4-(4-Chloro-phenyl)-piperazine-1-carbonyl]-4-phenyl-piperidine-4-carboxylic acid ((S)-1-phenyl-ethyl)-amide]
Ki: 12.5 nM

Cc1noc(-c2ccc(C(=O)N3CCC(C(=O)N[C@@H](c4ccc(F)cc4)C(F)(F)F)(c4ccc(F)cc4)CC3)cc2)n1 (racemic) [Example 202, 4-(4-Fluoro-phenyl)-1-[4-(3-methyl-[1,2,4]oxadiazol-5-yl)-benzoyl]-piperidine-4-carboxylic acid [(SR)-2,2,2-trifluoro-1-(4-fluoro-phenyl)-ethyl]-amide]
Ki: 6.8 nM

C[C@H](NC(=O)C1(c2ccc(F)cc2)CCN(C(=O)C2CCN(c3ccc(C#N)cn3)CC2)CC1)c1cccc(F)c1 [Example 155, 1-(5′-Cyano-3,4,5,6-tetrahydro-2H-[1,2′]bipyridinyl-4-carbonyl)-4-(4-fluoro-phenyl)-piperidine-4-carboxylic acid [(S)-1-(3-fluoro-phenyl)-ethyl]-amide]
Ki: 75 nM

Cc1noc(-c2ccc(C(=O)N3CCC(C(=O)N[C@@H](C)c4ccccc4)(c4ccc(F)cc4)CC3)cc2)n1 [Example 81, 4-(4-Fluoro-phenyl)-1-[4-(3-methyl-[1,2,4]oxa-diazol-5-yl)-benzoyl]-piperidine-4-carboxylic acid ((S)-1-phenyl-ethyl)-amide]
Ki: 6 nM

Cc1noc(-c2ccc(C(=O)N3CCC(C(=O)N(C)Cc4ccc(F)cc4)(c4ccccc4)CC3)cc2)n1 [Example 105, 1-[4-(3-Methyl-[1,2,4]oxa-diazol-5-yl)-benzoyl]-4-phenyl-piperidine-4-carboxylic acid (4-fluoro-benzyl)-methyl-amide]
Ki: 5.2 nM

CC(C)N(NC(=O)C1(c2ccc(F)cc2)CCN(C(=O)c2ccc(-c3ccc(F)cc3)cc2)CC1)c1ccc(F)cc1 [Example 185, 1-(4′-Fluoro-biphenyl-4-carbonyl)-4-(4-fluoro-phenyl)-piperidine-4-carboxylic acid N′-(4-fluoro-phenyl)-N′-ispropyl-hydrazide]
Ki: 63.6 nM

C[C@H](NC(=O)C1(c2ccccc2)CCN(C(=O)c2ccc(-c3ccccc3)cn2)CC1)c1ccccc1 [Example 38, 4-Phenyl-1-(5-phenyl-pyridine-2-carbonyl)-piperidine-4-carboxylic acid ((S)-1-phenyl-ethyl)-amide]
Ki: 21.4 nM

C[C@H](NC(=O)C1(c2ccccc2)CCN(C(=O)c2ccc(-c3ccc(Cl)c(Cl)c3)cc2)CC1)c1ccccc1 [Example 4, 1-(3′,4′-Dichloro-biphenyl-4-carbonyl)-4-phenyl-piperidine-4-carboxylic acid ((S)-1-phenyl-ethyl)-amide]
Ki: 19.6 nM

C[C@H](NC(=O)C1(c2ccc(F)cc2)CCN(C(=O)c2ccc(N3CCS(=O)(=O)CC3)cc2)CC1)C1CCCCC1 [Example 91, 1-[4-(1,1-Dioxo-1λ6 thiomor-pholin-4-yl)-benzoyl]-4-(4-fluoro-phenyl)-piperidine-4-carboxylic acid ((S)-1-cyclohexyl-ethyl)-amide]
Ki: 7.6 nM

C[C@H](NC(=O)C1(c2ccccc2)CCN(C(=O)c2ccc(-c3ccc(C#N)cc3)cc2)CC1)c1ccccc1 [Example 55, 1-(4′-Cyano-biphenyl-4-carbonyl)-4-piperidine-phenyl-4-carboxylic acid ((S)-1-phenyl-ethyl)-amide]
Ki: 14.8 nM

C[C@H](NC(=O)C1(c2ccccc2)CCN(C(=O)c2ccc(N3CCS(=O)(=O)CC3)nc2)CC1)c1ccccc1 [Example 98, 1-[6-(1,1-Dioxo-1λ6-thiomor-pholin-4-yl)-pyridine-3-carbonyl]-4-phenyl-piperidine-4-carboxylic acid ((S)-1-phenyl-ethyl)-amide]
Ki: 33.6 nM

CN(Cc1ccc(F)cc1)C(=O)C1(c2ccccc2)CCN(C(=O)c2ccc(N3CCS(=O)(=O)CC3)cc2)CC1 [Example 106, 1-[4-(1,1-Dioxo-1λ6-thiomor-pholin-4-yl)-benzoyl]-4-phenyl-piperidine-4-carboxylic acid (4-fluoro-benzyl)-methyl-amide]
Ki: 56.3 nM

CC[C@H](NC(=O)C1(c2ccccc2)CCN(C(=O)c2ccc(-c3ccc(F)cc3)cc2)CC1)c1ccccc1 [Example 85, 1-(4′-Fluoro-biphenyl-4-carbonyl)-4-phenyl-piperidine-4-carboxylic acid ((S)-1-phenyl-propyl)-amide]
Ki: 2.7 nM
